System: LPS induced rat ARDS model
Assay: Therapeutic effect on lipopolysaccharide (LPS) induced rat ARDS model
Format: in vivo
From the text: The therapeutic effect of N-(2-ethylsulfonylamino-5-trifluoromethyl-3-pyridyl)cyclohexanecarboxamide sodium salt hydrate (hereinafter referred to as compound 1) on LPS induced rat ARDS model was examined.
The compound 1 was used as a drug formulation. The formulation composition (content per one vial) was as follows.
To Crj: CD(SD)IGS male rats (7 weeks old) (Charles River Japan Inc.), LPS (derived from Salmonella enteritidis; L6011, Lot. 27H4127, manufactured by Sigma) diluted with a phosphate buffer solution (PBS) was administered by spraying it on the trachea in a dose of 8 mg/kg (0.5 ml/rat) by means of an atomizer (endotracheal liquid atomizing apparatus 1A-1B, manufactured by Penn Century) to induce ARDS. For normal group rats, PBS was similarly sprayed.
A drug formulation of the compound 1 diluted with 5% glucose was subcutaneously administered continuously in a dose of 0.3 mg/kg/hr as calculated as anhydride of the compound 1 by means of an osmotic pump from immediately after the induction to the time of autopsy (24 hours after). To non-treated group rats, 5% glucose used as the solvent was administered similarly.
24 Hours after the administration of LPS, measurement of the body weight and the lung wet weight, biochemical examination of blood and pathological and histopathological examinations were carried out with respect to every surviving rats.
No death was confirmed 24 hours after the LPS administration, and thus various examinations were carried out with respect to every rat. Here, the pathological score was obtained by evaluating each rat in five stages of −(no significant lesion), ±(slight), +(mild), ++(moderate) and +++(marked), and allotting 0, 0.5, 1, 2 and 3 points, respectively, to obtain the average of each group.

[1] = Crj:CD(SD)IGS male rats, LPS 8 mg/kg on the trachea, 0.3 mg/kg/hr x 24 hr subcutaneous by osmotic pump, 24 hours after LPS, score 0-3, non-treated group 2.7, P < 0.01 vs. non-treated group
[2] = Crj:CD(SD)IGS male rats, LPS 8 mg/kg on the trachea, 0.3 mg/kg/hr x 24 hr subcutaneous by osmotic pump, 24 hours after LPS, score 0-3, non-treated group 2.8, P < 0.01 vs. non-treated group

CCS(=O)(=O)Nc1ncc(C(F)(F)F)cc1NC(=O)C1CCCCC1.O.[Na] [Compound 1, N-(2-ethylsulfonylamino-5-trifluoromethyl-3-pyridyl)cyclohexanecarboxamide sodium salt hydrate]
Histopathological findings of alveoli: Collapse of alveolar wall (average of score in each group), Mean [1]: 1.2
Histopathological findings of alveoli: Hemorrhage in alveoli (average of score in each group), Mean [1]: 1.5
Histopathological findings of alveoli: Alveolar edema (average of score in each group), Mean [2]: 1.4
Histopathological findings of alveoli: Fibrin deposit in alveoli (average of score in each group), Mean [2]: 1.5
Autopsy findings of lung: Edema (average of score in each group), Mean (Crj:CD(SD)IGS male rats, LPS 8 mg/kg on the trachea, 0.3 mg/kg/hr x 24 hr subcutaneous by osmotic pump, autopsy 24 hours after LPS, score 0, 0.5, 1, 2, 3 for -, ±, +, ++, +++, non-treated group 0.4): 0.1
Autopsy findings of lung: Hemorrhage (average of score in each group), Mean (Crj:CD(SD)IGS male rats, LPS 8 mg/kg on the trachea, 0.3 mg/kg/hr x 24 hr subcutaneous by osmotic pump, autopsy 24 hours after LPS, score 0-3, non-treated group 1.0): 0.5
Autopsy findings of lung: Congestion (average of score in each group), Mean (Crj:CD(SD)IGS male rats, LPS 8 mg/kg on the trachea, 0.3 mg/kg/hr x 24 hr subcutaneous by osmotic pump, autopsy 24 hours after LPS, score 0-3, non-treated group 2.8, P < 0.01 vs. non-treated group): 2.2
Collapse of the alveolar wall, alveolar edema and hemorrhage, and fibrin deposit in the alveoli (LPS induced rat ARDS model, compound 1 administered group (0.3 mg/kg/hr subcutaneous, 24 hours) compared with non-treated group, result in words): reduced
Inhibition effect against ARDS pathological progress (LPS induced rat ARDS model, compound 1 administered group (0.3 mg/kg/hr subcutaneous, 24 hours), result in words): remarkable inhibition effect

From patent US6635665B2, “Remedies or preventives for pulmonary insufficiency containing diaminotrifluoromethylpyridine derivatives” (Ishihara Sangyo Kaisha, Ltd., priority 2000, dated 2003)
